Assay results: patent US9750809B2, “Cancer treatment” (MOREX DEVELOPMENT PARTNERS LLP, priority 2012, dated 2017)

Key:
[1] = mouse, in vivo
Procedure: Direct current plasma-atomic emission spectroscopy [DCP-AES] (ARL/Fisons Model SS-7) was used (detection limit: 0.1 μg B/mL) to determine boron concentrations in tissues of individual mice. Samples (50-130 mg) were digested at 60° C. with sulfuric acid:nitric acid (1:1). Triton X-100 and water were added to give final concentrations of ˜50 mg tissue/mL, 15% total acid v/v and 5% Triton X-100 v/v. […] It is known that the ether linkages between the porphyrin and carborane cages remain intact in vivo.

[2] = tested on: SCCVII squamous cell carcinomas
Procedure: Mice were euthanized when the tumour volume reached 500 mm^3; and
SCCVII murine squamous cell carcinoma cells were cultured in D-MEM enriched with 10% fetal bovine serum, 1% penicillin/streptomycin and 1% L-glutamine. Only passages 1-3 were used to initiate tumours. Cells (2×10^5 in 0.05 mL of medium) were then implanted sc into the left thighs of 20-25 g female C3H mice (Charles River Laboratories, Wilmington, Mass.).
Due to the large number of animals to be dosed and irradiated, it was necessary to split the animals into two equally sized groups: Groups A and B. Animals in each Group A were injected on day 7 after tumour implantation, while animals in each Group B were injected on day 8 post tumour implantation.
The animals in Group A were irradiated 8 days, and those in Groups B were irradiated 9 days after tumour implantation. Mice were anesthetized (sodium pentobarbital, ˜60 μg/g i.p.) and positioned for irradiation with the tumour-bearing leg extended across a 2-cm diameter collimated irradiation port. Tumours were irradiated using a single dose fraction of 32 gy at a dose-rate of 2.0 Gy/min using a Philips RT-100 set, operating at 100 kVp and 8 mA.
Tumours were measured 2-3 times per week and the mice were killed humanely when the calculated tumour volume (x^2y/2, where x is the shorter surface dimension) exceeded 500 mm^3.
Dosimetry for X-irradiation was carried out using a thimble ionization chamber applying the 1996 IPEB code of practice.

[3] = 150 mg/kg MTL005 + 32 Gy vs 32 Gy alone
[4] = 150 mg/kg MTL005 i.p. one day prior to 32 Gy X-rays, 11 mice

With “copper meso-5,15-bis[3-[(1,2-dicarba-closo-dodecaboranyl)methoxy]phenyl]-meso-10,20-dinitroporphyrin [MTL005]” the “Retention of active sensitiser in the tumour after single administration” value [1] was “still a significant concentration of active sensitiser in the tumour”, the “Number of surviving mice compared with X-rays alone” value [2, 3] was “higher” and the “Tumour control compared with X-rays alone (Kaplan-Meier, FIG. 2)” value [2, 3] was “greater tumour control”. The “% Tumour control” value [2, 4] was 54.5%, the “Controlled tumours (volume of 0 mm^3), number of mice” value [2, 4] was 6 and the “Mice alive at 62 days with observable tumours” value [2, 4] was 2. For the same substance, the “Number of controlled tumours compared to radiation alone” value ([2]; 32 Gy) was “doubled”.
